The nature of test [1]: Inhibition of NMDA-induced nNOS/PSD95 in rat cortical neurons preincubated for 30 mins followed by NMDA addition in presence of glutamate/glycine measured after 24 hrs by immunoprecipitation assay. The class given is cell-based. The conditions noted are these: cortical neuron.
For a further test, the species on record is Homo sapiens. Description: Inhibition of nNOS (unknown origin)/CAPON (unknown origin) protein-protein interaction assessed as residual activity by coimmunoprecipitation assay relative to control. Set-up: concentration or dose not given beside the values.
Test [2] is described as follows: Inhibition of human GSNOR.
Test [3] can be described thus: Inhibition of recombinant nNOS (1 to 299 residues) (unknown origin)/biotin-tagged PSD95 (unknown origin) protein-protein interaction by DELFIA. Set-up: species or system Homo sapiens.

Where only a bound is given, the exact number is not on record here.

As usually defined, the IC50 is the midpoint of a concentration-inhibition curve.

`O=C(O)c1cc(NCc2cc(Cl)cc(Cl)c2O)ccc1O`: the IC50 in test [1] was 870000 nM. As for `COC(=O)CCC(=O)N[C@@H](C(=O)OC)C(C)C`, the Activity in the test filed under Homo sapiens turned out to be 61.8%. On the same count and under the same terms, for `COC(=O)[C@H](NC(=O)CC(=O)O)C(C)C` the value was 30.5%. Consider `COC(=O)c1ccc(NCc2cc(Cl)cc(Cl)c2O)cc1O`, for which the concentration for half-maximal inhibition (IC50) in test [1] amounted to 11200 nM. Still for that read-out and setting: for `O=C(O)c1ccc(NCc2cc(Br)ccc2O)cc1O` the value was 10300 nM. Take `CCOc1cc([C@@H]2NC(=O)NC(c3cccnc3)=C2c2ccsc2)cc(C(=O)O)c1O`: the IC50 in test [2] is < 100 nM. In the case of `COC(=O)CC(=O)N[C@@H](C(=O)OC)C(C)C`, in the test listed under Homo sapiens, the Activity was found to be 26.3%. On to `Cc1cc(NS(C)(=O)=O)ccc1-n1c(CCC(=O)O)ccc1-c1ccc(-n2ccnc2)cc1`, for which, in test [2], the IC50 was found to be 29 nM.

As for `O=C(O)c1ccc(NCc2cc(F)ccc2O)cc1O`, in test [1], the IC50 was 880 nM. Turning to `CC(C)[C@@H](NC(=O)CC(=O)O)C(=O)O`, the Activity in the test listed under Homo sapiens turned out to be 75%. On to `Oc1c(Cl)cc(Cl)cc1CNc1ccc2nn[nH]c2c1`, for which, in test [3], the IC50 was found to be 31000 nM. Turning to `Cc1nccn1-c1ccc(-c2ccc(CCC(=O)O)n2-c2ccc(O)cc2)s1`, the IC50 in test [2] stood at 36 nM. Still for that read-out and setting: for `Cc1cc(C(N)=O)ccc1-n1c(CCC(=O)O)ccc1-c1ccc(Cl)cc1O` the value was 55 nM. As to `COC(=O)[C@H](NCCC(=O)O)C(C)C`, in the test filed under Homo sapiens, the Activity was found to be 87.8%.

`Cc1cc(C(N)=O)ccc1-n1c(CCC(=O)O)ccc1-c1ccc(Br)cc1`: 70 nM corresponded to half-maximal inhibition in test [2] (IC50).

For the compound `COc1cc(Cl)ccc1-c1ccc(CCC(=O)O)n1-c1ccc(C(N)=O)cc1C`, in test [2], the half-inhibitory concentration (IC50) turned out to be 56 nM. Still for that read-out and setting: under `NC(=O)c1ccc(-c2cc(C(=O)O)ccc2C#Cc2ccc(O)cc2Cl)cc1` stands < 50 nM; under `Cc1cc(-n2ccnc2)ccc1-c1cc2sc(C(=O)O)cc2n1-c1ccc(C(N)=O)c(OCC(C)C)c1`, < 50 nM; under `Cc1cc(NS(C)(=O)=O)ccc1-n1c(CCC(=O)O)ccc1-c1ccc(-n2ccnc2C)s1`, 43 nM.

In the case of `O=C(O)c1ccc(NCc2cc(Cl)cc(Cl)c2O)cc1O`, in test [1], the concentration for half-maximal inhibition (IC50) came to 82 nM. Same read-out and setting: for `O=C(O)c1ccc(NCc2cc(Cl)ccc2O)cc1O` the value was 40100 nM. As to `COC(=O)[C@H](NC(=O)Cc1nnn[nH]1)C(C)C`, the Activity in the test listed under Homo sapiens came to 49.4%.

`Cc1nccn1-c1ccc(-c2ccc(CCC(=O)O)n2-c2ccc(S(N)(=O)=O)cc2)s1`: the concentration for half-maximal inhibition (IC50) in test [2] was 23 nM. With `O=C(O)CCc1ccc(-c2ccc(-n3ccnc3)cc2)n1-c1ccc(O)cc1`, the IC50 in test [2] was 39 nM. Same read-out and setting: under `O=C(O)c1ccc(C#Cc2ccc(O)cc2Cl)c(CCCn2cnnn2)c1` stands < 50 nM; under `Cc1cc(S(N)(=O)=O)ccc1-n1c(CCC(=O)O)ccc1-c1ccc(-n2ccnc2C)s1`, 22 nM. Consider `COC(=O)[C@@H](Cc1ccccc1)NC(=O)CC(=O)O`, for which the Activity in the test filed under Homo sapiens came to 76.6%.

Turning to `COC(=O)[C@@H](NC(=O)CC(=O)O)C(C)C`, the Activity in the test listed under Homo sapiens is 37.5%.

For the compound `O=C(O)c1ccc(NCCc2cc(Cl)cc(Cl)c2O)cc1O`, the IC50 in test [1] stood at 597000 nM.

For the origin of these results see ChEMBL document CHEMBL5131513, “Protein S-Nitrosation: Biochemistry, Identification, Molecular Mechanisms, and Therapeutic Applications” (J Med Chem, 2022).
